Measurements taken from the supplement of paper PMC5412046.
Structures can show the parent of a compound that is named as a salt.

What was measured:
[1] = system: SB.mhdgc-1; assay: AC50 for growth inhibition (viability) (log10 M); higher = less potent; details: SB.mhdgc-1 (hereditary c.1380delA CDH1 gastric cancer)
Outline: (§1)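 Log half-maximal activity concentration reflects viability of patient-derived gastric cancer cells, hereditary or sporadic, normalised to DMSO and fitted with four parameters, with only high-quality curve classes retained. Wells of a 1536 plate held 500 cells and received compound by pintool at 11 threefold dilutions from a final 46 μM. Luminescence from CellTiter-Glo was read on a ViewLux at 48 h.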

[2] = system: SB.msgc-1; assay: as above; details: SB.msgc-1 (sporadic gastric cancer)
Outline: as §1

Row | Compound | AC50 for growth inhibition (log10 M) [1] | AC50 for growth inhibition (log10 M) [2]
1 | OC1=C(O)C2=C(\C=C/C(=O)O2)C=C1 [Daphnetin] | -5.78 | -4.78
2 | C=C1/C(=C/C=C2\CCCC3(C)[C@@H]([C@H](C)/C=C/C=C/C(O)(CC)CC)CC[C@@H]23)C[C@@H](O)C[C@@H]1O (some centres not stated) [Seocalcitol] | -4.83 | -4.78
3 | CC(C)(C)NC(=O)[C@H]1CC[C@H]2[C@@H]3CC[C@H]4NC(=O)\C=C/[C@]4(C)[C@H]3CC[C@]12C [Finasteride] | -6.23 | -5.78
4 | Clc1ccc(C(c2ccccc2Cl)C(Cl)Cl)cc1 (configuration not stated) [Mitotane] | -4.88 | -4.73
5 | O=C(Nc1cc(C(F)(F)F)cc(C(F)(F)F)c1)c1cc(Cl)ccc1O [IMD-0354] | -5.78 | -5.73
6 | CN(C)CCCN\C1=C\2C(=O)N(C)C(=O)\N=C2N(C)C3=C1C=CC=C3 | -5.73 | -4.73
7 | CNC(=O)c1ccc(N2C(=S)N(c3ccc(C#N)c(C(F)(F)F)c3)C(=O)C23CCC3)cc1F [RD-162] | -5.08 | -5.13
8 | CCCCc1ccc(N[S+](=O)([O-])c2ccc(C)c(C(=O)N3CCN(c4cccc(C)c4C)CC3)c2)cc1 [IDH-001] | -4.83 | -4.68
9 | Cc1ccc(NC(=O)c2cccc(N(C)C)c2)cc1NC(=O)c1ccc(O)cc1 | -6.48 | -5.78
10 | C=C1/C(=C\C=C2/CCC[C@]3(C)[C@@H]([C@H](C)/C=C/[C@H](C)C(C)C)CC[C@@H]23)C[C@@H](O)C[C@@H]1O [Doxercalciferol] | -6.73 | -6.23
11 | CCCNC(=O)[C@H]1O[C@@H]1C(=O)N[C@H](C(=O)N1CCC[C@H]1C(=O)OC)C(C)CC (some centres not stated) [CA-074 Me] | -4.78 | -4.73
12 | C[C@@H]1CN[C@H]2[C@@H](C)[C@@]\3(CC[C@H]\4[C@@H]5C/C=C6/C[C@@H](O)CC[C@]6(C)[C@H]5CC4=C3C)O[C@@H]2C1 [Cyclopamine] | -4.68 | -4.73
13 | CN(Cc1cnc2nc(N)nc(N)c2n1)c1ccc(C(=O)N[C@@H](CCC(=O)O)C(=O)O)cc1 [Methotrexate] | -6.68 | -7.48
14 | CC(C)C[C@H](NC(=O)[C@H](Cc1ccccc1)NC(=O)c1cnccn1)B(O)O [Bortezomib] | -7.78 | -7.98
15 | C=CC(=O)N1CCC[C@@H](n2nc(-c3ccc(Oc4ccccc4)cc3)c3c(N)ncnc32)C1 | -5.98 | -7.48
16 | Cc1cc(OCCCc2c(C(=O)O)n(Cc3cccnc3)c3c(-c4c(COc5ccc(N6CCN([S+](C)(=O)[O-])CC6)cc5)nn(C)c4C)cccc23)cc(C)c1Cl | -4.73 | -4.63
17 | C[C@@H]1C[C@H]2[C@@H]3\C=C(C)/C4=C/C5=C(C[C@]4(C)[C@H]3[C@@H](O)C[C@]2(C)[C@@]1(O)C(=O)CO)C=N[N]5C6=CC=CC=C6 [Deacetyl cortivazol] | -5.63 | -5.08
18 | O=C1[O][Pt]2([NH]C3CCCCC3[NH]2)[O]C1=O (configuration not stated) [Oxaliplatin] | -4.73 | -5.58
19 | NCC(=O)Nc1ccc(-n2nc(C(F)(F)F)cc2-c2ccc3c(ccc4ccccc43)c2)cc1 | -4.68 | -4.63
20 | CC1(C)S[C@H]2[C@H](NC(=O)[C@@H](N)C3=CC=C(O)C=C3)C(=O)[N@]2[C@H]1C(O)=O [Amoxicillin sodium] | -5.53 | -5.08
21 | C[C@H](NCc1ccc(OCc2cccc(F)c2)cc1)C(N)=O [Safinamide mesilate] | -5.08 | -4.78
22 | CC(C)(O)c1cc2nc(-c3cnc(N)nc3)nc(N3CCOCC3)c2s1 [GNE-493] | -6.98 | -6.88
23 | O=C(NC[C@H](O)CO)c1ccncc1Nc1ccc(I)cc1F [Pimasertib] | -4.73 | -6.38
24 | CC(=O)Nc1sc2c(c1-c1nc3ccccc3s1)CNC2 | -6.08 | -4.68
25 | CC[S+](=O)([O-])Nc1ccc2c(c1)/C(=C(/Nc1ccc(CN3CCCCC3)cc1)c1ccccc1)C(=O)N2 [Hesperadin] | -5.18 | -5.23
26 | O=C(NC1CCNCC1)c1n[nH]cc1NC(=O)c1c(Cl)cccc1Cl [AT-7519] | -7.18 | -6.68

Row | Compound | AC50 for growth inhibition (log10 M) [1] | AC50 for growth inhibition (log10 M) [2]
27 | CC(C)(C)Cn1c(N)nc2ccc(-c3[nH]c(C(C)(C)C)nc3-c3ccc(F)cc3)nc21 | -4.53 | -4.73
28 | C[C@@]12OC(=O)[C@@]1(NC(=O)[C@@H]2CCCl)[C@@H](O)[C@H]\3CCC\C=C3 [Marizomib] | -7.68 | -7.48
29 | COc1cc2nccc(Oc3ccc(NC(=O)Nc4cc(C)on4)c(Cl)c3)c2cc1OC [Tivozanib] | -5.28 | -5.58
30 | CC(C)CN(C[C@@H](O)[C@H](Cc1ccccc1)NC(=O)O[C@H]1CCOC1)[S+](=O)([O-])c1ccc(N)cc1 [Amprenavir] | -6.03 | -5.63
31 | COC1=CC=CC2=C1C(=NC(=N2)C3=CC=CS3)NN4C(=O)\C=C(C)/C4=O | -5.18 | -4.88
32 | OC[C@H]1OC(OC2=CC3=C(C(=C2)O)C(=O)\C(=C/O3)C4=CC=C(O)C=C4)[C@H](O)[C@@H](O)[C@@H]1O (some centres not stated) [Genistin] | -5.78 | -6.33
33 | Cc1cccc(-c2[nH]c(C(C)(C)C)nc2-c2ccc3nccnc3c2)n1 | -4.83 | -5.73
34 | NC1=NC=C(C=C1)C2=CC=C3N=CC\4=C(N(C(=O)\C=C4)C5=CC(=CC=C5)C(F)(F)F)C3=C2 [Torin-2] | -6.48 | -6.78
35 | CCOc1ccc(Cc2cc([C@@H]3O[C@H](CO)[C@@H](O)[C@H](O)[C@H]3O)ccc2Cl)cc1 [Dapagliflozin] | -5.18 | -4.98
36 | Cc1cnc(Nc2ccc(N3CCN(C)CC3)cc2)nc1Nc1cccc([S+](=O)([O-])NC(C)(C)C)c1 | -5.33 | -4.98
37 | CCOc1cc2ncc(C#N)c(Nc3ccc(F)c(Cl)c3)c2cc1NC(=O)/C=C/CN(C)C [Pelitinib] | -7.38 | -7.43
38 | N#CC(=C(/N)Sc1ccccc1N)/C(C#N)=C(\N)Sc1ccccc1N [U-0126] | -5.88 | -4.73
39 | COc1cccc2c1C(=O)c1c(O)c3c(c(O)c1C2=O)C[C@@](O)(C(C)=O)C[C@@H]3O[C@H]1C[C@H](N)[C@H](O)[C@H](C)O1 [Daunorubicin] | -7.28 | -6.93
40 | C[C@H]1[C@@H](OC(=O)CCC(=O)O)O[C@@H]2O[C@@]3(C)CC[C@H]4[C@H](C)CC[C@@H]1[C@@]24OO3 [Artesunate (AS)] | -5.03 | -5.18
41 | C[C@](O)(CS(=O)(=O)c1ccc(F)cc1)C(=O)Nc1ccc(C#N)c(C(F)(F)F)c1 [(R)-Bicalutamide] | -6.33 | -6.03
42 | O=C(c1ccc(OCCN2CCCCC2)cc1)c1c(-c2ccc(O)cc2)sc2cc(O)ccc12 [Raloxifene hydrochloride] | -6.88 | -5.18
43 | CC[C@H](NC1=C2N=C[NH]C2=NC=N1)C/3=N/C4=C(C(=CC=C4)F)C(=O)N3C5=CC=CC=C5 [CAL-101] | -5.18 | -5.43
44 | Cn1cnc2c(F)c(Nc3ccc(Br)cc3Cl)c(C(=O)NOCCO)cc21 [Selumetinib] | -5.38 | -5.18
45 | CNC(=O)c1cc(Oc2ccc(NC(=O)Nc3ccc(Cl)c(C(F)(F)F)c3)cc2)ccn1 [Sorafenib] | -5.08 | -4.98
46 | O=C(O)C1CCCN(CCC=C(c2ccccc2)c2ccccc2)C1 (configuration not stated) | -5.53 | -5.03
47 | CCOc1ccccc1N/N=C1/C(=O)N(c2nc(-c3ccccc3)cs2)N=C1C [BAM7] | -5.48 | -5.48
48 | Cc1nc(Nc2n[nH]c3c2CN(C(=O)N[C@H](CN(C)C)c2ccccc2)C3(C)C)c2sccc2n1 | -5.98 | -6.53
49 | CCN(CC)Cc1ccc2cc(COC(=O)Nc3ccc(C(=O)NO)cc3)ccc2c1 [Givinostat hydrochloride] | -5.38 | -6.03
50 | C[C@@H]1CC[C@@]2(CC[C@]3(C)\C(=C/C[C@@H]4[C@@]5(C)CC[C@H](O)C(C)(C)[C@@H]5CC[C@@]34C)[C@@H]2[C@H]1C)C(O)=O [Ursolic acid] | -4.67 | -4.47
51 | CN1CC[C@H]([C@@H](O)C1)C2=C(O)C=C(O)C3=C2O\C(=C/C3=O)C4=CC=CC=C4Cl | -7.08 | -7.13
